The record followed here is the METLIN SMRT retention time set (Domingo-Almenara et al. 2019).

A short description of this data set: gradient 5% acetonitrile 3 min, to 50% in 2 min, to 85% in 15 min, held 3 min, 100 µL/min. Conditions: column: Zorbax Extend-C18 2.1 x 50 mm; eluents: water / acetonitrile, 0.1% formic acid. An outline of the steps: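 Data were gathered over 3 months by HPLC coupled to a quadrupole time-of-flight mass spectrometer, operated in positive and negative ionization mode. Mixtures of ~100 pure standards ran on a Zorbax Extend-C18 column (2.1 × 50 mm, 1.8 μm) at 100 μL/min, with water and acetonitrile each containing 0.1% formic acid and dead and dwell volumes of 40 μL and 900 μL. Retention time was read from adduct peaks picked by computer and checked manually.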
With `Cc1cc2[nH]c(C(=O)Nc3cc(F)c(F)cc3F)c(CN(C)C)c2s1`, the RP-LC retention time was 664 s. Under `O=C(Nc1ccc2c(c1)OCO2)C1CCc2sc(C(=O)N3CCCC3)cc2C1` (stereo not drawn) stands 730 s; under `Cc1ccc(NC(=O)Cn2ncc3c(c2=O)N(CC2CC2)C(=O)CS3)cc1Cl`, 884 s; under `CCOc1ccc(NS(=O)(=O)c2cc(-c3c(CC)noc3NC(C)=O)ccc2OC)cc1`, 791 s. For the compound `CCCNC(=O)CC1CCN(C(=O)c2[nH]c(C)c(C)c2C)CC1`, the RP-LC retention time was determined as 698 s. Compound `C=CCc1ccccc1OCCn1c(CN(C)C(=O)c2ccco2)nc2ccccc21` showed an RP-LC retention time of 702 s. Under `COCCn1c(CCCC(=O)Nc2ccc(Cl)cc2)nc2cccnc21` stands 693 s; under `O=C(CN1C(=O)CCC1=O)NCC1(c2ccc(F)cc2)CC1`, 665 s.

For `O=S(=O)(NC1CCCCC1)c1ccc2c(c1)-c1oncc1CO2`, the RP-LC retention time stood at 673 s. Under `COCCCNc1c(-c2cccc(F)c2)nc2sc(C(=O)N(C)C)c(C)n12` stands 776 s; under `COC(=O)c1ccc2c(=O)n(-c3cc(F)cc(F)c3)c(N3CCCCC3)nc2c1`, 1180 s.

`CCCCN(CC)c1nc(-c2ccc([N+](=O)[O-])cc2)nc2ccccc12` yielded an RP-LC retention time of 975 s.

Take `Cc1nc2ccccc2c(=O)n1Cc1noc(-c2ccc(C(F)(F)F)cc2)n1`: the RP-LC retention time was 987 s.

The compound `COC1=CC(=O)C[C@@H](C)C12Oc1c(Cl)c(OC)cc(OC)c1C2=O` (stereo partly drawn) registered an RP-LC retention time of 812 s. Under `CCCS(=O)(=O)c1nc2ccc(NS(=O)(=O)Cc3cc(F)cc(F)c3)cc2s1` stands 938 s; under `Cc1cccc(C(=O)N2CCC3(C2)C(=O)N(C)c2ccccc23)c1` (stereo not drawn), 794 s; under `COc1ccc(N2CCN(C(=O)Cn3nc(C(=O)N4CCCC4)c4ccccc43)CC2)cc1`, 753 s.

`CN(C)C(=O)CN1C(=O)COc2ccc(C(=O)N3CCN(c4ccc(F)cc4)CC3)cc21` yielded an RP-LC retention time of 715 s. Under `COC(=O)C1CCN(S(=O)(=O)c2ccc(Cl)c(-c3nnc(-c4ccc(OC)cc4)o3)c2)CC1` stands 1050 s; under `COc1cccc(-c2noc(COC(=O)C3=CN(Cc4ccccc4)S(=O)(=O)N=C3C)n2)c1`, 1110 s; under `CC(C)CCNC(=O)C1(C)Cn2nc(C(=O)NCc3ccc(F)cc3)cc2C(=O)N1C` (stereo not drawn), 727 s.

`COCCCN1CN=C(Nc2nc(C)c3cc(C)ccc3n2)NC1` returned an RP-LC retention time of 555 s. Under `Cc1ccc(NC(=O)Nc2cnn(-c3ncncc3N3CCOCC3)c2)cc1C` stands 674 s; under `CC(C)(C)NC(=O)N1CCN(Cc2nc3cccnc3n2-c2cccc(F)c2)CC1`, 648 s; under `CN(CC1(C)CCOCC1)S(=O)(=O)c1cccc(F)c1`, 895 s.

With `CCC(C)NC(=O)Cn1cnc2nc(N3CCC(C(=O)NC4CC4)CC3)sc2c1=O` (stereo not drawn), the RP-LC retention time was found to be 1140 s. With `CCn1nc(C)c(CCNC(=O)CCCn2c3ccccc3c3cnn(C)c(=O)c32)c1C`, the RP-LC retention time was determined as 698 s.

For the compound `CCOc1ccc2nc(NC(=O)C3CCCN(c4ncnc5c4nc4n5CCCCC4)C3)sc2c1` (stereo not drawn), the RP-LC retention time came out at 1000 s. Under `Cc1ccc2c(c1)N(S(C)(=O)=O)CCC(C(=O)Nc1ccccc1C(C)C)O2` (stereo not drawn) stands 1020 s; under `COc1cccc(-c2nc(-c3ccc(-n4ccnc4)nc3)no2)c1`, 736 s; under `CCN1CCN(CCNC(=O)c2cc3n(n2)CCCN(Cc2ccc(Cl)cc2)C3=O)CC1`, 610 s. Under `Cc1[nH]c(C(=O)N2CCC(CC(=O)NCCCN3CCC(N4CCCCC4)CC3)CC2)c(C)c1C` stands 575 s; under `COCCn1cc(CCNC(=O)Nc2ccc(C)c(Cl)c2)c2cccnc21`, 812 s. Under `O=C(Nc1ccccc1)c1c(O)c2cccnc2n(-c2cccc(F)c2)c1=O` stands 1210 s; under `O=c1c2cnc3nc(-c4ccccc4Cl)nn3c2ccn1CCc1c[nH]c2ccc(F)cc12`, 947 s. Compound `COc1ccc(-c2nc3cnccn3c2Nc2cccc(C(N)=O)c2)cc1` came in with an RP-LC retention time of 612 s. Under `COc1ccccc1N1CCN(c2cc(SCC(=O)Nc3ccc4c(c3)OCO4)ncn2)CC1` stands 900 s; under `COC(c1ccccc1)(c1ccccc1)[C@H](Oc1nc(C)cc(C)n1)C(=O)O`, 913 s; under `Cc1nnc2ccc(N3CCN(C(=O)Cc4cccc5ccccc45)CC3)nn12`, 660 s. On to `O=C(CCCN1CCC(O)(c2cccc(C(F)(F)F)c2)CC1)c1ccc(F)cc1`, for which the RP-LC retention time amounted to 805 s. Under `O=C(Nc1nccnc1C(=O)NCCCN1CCCC1)c1ccccc1` stands 609 s; under `O=C(NCc1ccco1)c1ccc(-c2ccc(N3CCSCC3)nc2)cc1`, 708 s. Under `Cc1cccc(CS(=O)(=O)NCCCN2CCN(c3ccccc3)CC2)c1` stands 588 s. For the compound `Cc1cc(C)c(CN2CCn3c(nn(C)c3=O)C2)c(C)c1`, the RP-LC retention time came to 868 s. The compound `COc1ccc(Nc2nc(C(=O)N3c4ccccc4CC3C)cs2)cc1OC` (stereo not drawn) came in with an RP-LC retention time of 854 s. Under `Cc1onc(-c2ccccc2Cl)c1C(=O)NCCN(C)C` stands 591 s; under `Cc1[nH]c(C(=O)N2CCCC(C(=O)NC(C)c3ccccc3)C2)c(C)c1C(=O)OC(C)C` (stereo not drawn), 896 s. Under `Cn1cc(C(CNC(=O)Nc2cccc(Cl)c2)c2cccnc2)c2ccccc21` (stereo not drawn) stands 756 s; under `Cc1nc2cccnc2n1C1CCN(C(=O)Nc2ccc3c(c2)OCCO3)C1` (stereo not drawn), 573 s; under `CCn1c(=O)c(C)nc2cc(-c3noc(C(C)NC(=O)c4ccco4)n3)ccc21` (stereo not drawn), 866 s. `Cc1ccc(Cn2c(N3CCCC(C(=O)NCc4ccccc4F)C3)nc3ccsc3c2=O)cc1` (stereo not drawn): the RP-LC retention time amounted to 981 s.

Turning to `CCCC(=O)N1C[C@@H]2CCCN3CCC[C@@H]([C@H]23)[C@H]1CCCC(=O)NCC1CC1`, the RP-LC retention time worked out at 587 s. Under `COc1cccc(NS(=O)(=O)c2cc3c(s2)CCN(C(=O)C2CC2)C3)c1` stands 801 s; under `COc1cccc(C2=NC3(CCN(C(C)=O)CC3)NC(c3cc(Br)ccc3O)C2)c1` (stereo not drawn), 694 s.

Take `O=C(Nc1ccccc1Cl)Nc1c(-c2ccc(F)cc2)nc2ccccn12`: the RP-LC retention time turned out to be 695 s. Turning to `Cc1nn(C)cc1CN(C)C(=O)COc1ccc(NC(=O)C2CC2)cn1`, the RP-LC retention time worked out at 604 s.

In turn, `CC(C)CNC(=O)NCCC1CCN(S(=O)(=O)c2ccccc2)CC1` came in with an RP-LC retention time of 808 s. Consider `Cc1ccc(-c2noc(Cn3ccnc3)n2)cc1C`, for which the RP-LC retention time stood at 659 s. Take `O=C(Cc1csc(Nc2cccc(C(F)(F)F)c2)n1)NCc1ccco1`: the RP-LC retention time came to 636 s.

Compound `CCCN(CC1CCOC1)C(=O)c1cc(F)cc(F)c1` (stereo not drawn) displayed an RP-LC retention time of 808 s. Compound `COc1ccc(C)cc1NC(=O)N1CCCC1c1cc(C)on1` (stereo not drawn) gave an RP-LC retention time of 863 s. Under `O=C(CN1CCN(Cc2ccccc2F)C1=O)NCc1ccc(N2CCOCC2)cc1` stands 699 s; under `Cc1cccc(C)c1NC(=O)Cn1cnc2nc(N3CCC(C(=O)NC4CC4)CC3)sc2c1=O`, 693 s. `CCCNC(=O)C1CCCN(c2ccc(SCC(=O)Nc3c(C)cccc3Cl)nn2)C1` (stereo not drawn) had an RP-LC retention time of 655 s. Under `CCc1cccc(NC(=O)CSc2cc(N3CCN(c4ccc(OC)cc4)CC3)ncn2)c1` stands 1040 s.

`O=C(NC1CCCc2c1[nH]c1ccc(F)cc21)c1ccncc1` (stereo not drawn): the RP-LC retention time was 774 s. Under `CC1CC(=O)N(CC(=O)Nc2cccc(Cl)c2)c2ccccc2S1(=O)=O` (stereo not drawn) stands 796 s; under `COC(=O)c1[nH]c(C)c(CN(C)C(=O)c2ccc(Br)cc2)c1C`, 876 s. `O=C(Cc1ccccc1Cl)NC1CCN(c2cc(-c3cccs3)[nH]n2)C1` (stereo not drawn) registered an RP-LC retention time of 738 s. Under `O=C(CCc1cn(-c2ccccc2)nc1-c1ccc2c(c1)OCO2)NCCCN1CCOCC1` stands 681 s. Under `COc1ccc(CCC(=O)N2CCn3c(C)nnc3C2)cc1` stands 569 s; under `O=C(NCC1CCN(C(=O)Oc2ccccc2)CC1)C1c2ccccc2Oc2ccccc21`, 949 s; under `c1ccc(CCc2nc3nccc(-c4ccc5c(c4)OCCCO5)n3n2)cc1`, 984 s. In turn, `CCOc1ccccc1CNC(=O)c1cc(NC(C)=O)cc2nc(C)ccc12` showed an RP-LC retention time of 653 s. Under `O=C(CSc1ccc(Cl)cc1)Nc1nnc(-c2cccc([N+](=O)[O-])c2)s1` stands 968 s. Under `COc1ccc(NC(=O)N2CCc3c(C(=O)NC4CCN(C)CC4)cccc32)cc1` stands 603 s; under `O=C(NC1CCN(c2cc(-c3cccs3)[nH]n2)C1)c1ccc(Br)cc1` (stereo not drawn), 782 s.

The compound `COc1ccc(-c2nc(N3CCCC(C)C3)c3ccccc3n2)cc1` (stereo not drawn) yielded an RP-LC retention time of 836 s.
